Reference: ChEMBL document CHEMBL4177603 (Bioorg Med Chem Lett, 2017)
Values after ≈ are worked out from the molar mass of the structure shown.

Legend:
[1] = target: T1, Sodium channel protein type 9 subunit alpha (Homo sapiens, UniProt Q15858); assay: Inhibition of human Nav1.7 expressed in HEK cells by patch clamp electrophysiology method; assay type: cell-based
[2] = target: T1, Sodium channel protein type 9 subunit alpha; assay: Inhibition of human Nav1.7 expressed in HEK cells by automated patchXpress electrophysiology method; assay type: cell-based
[3] = target: Sodium channel protein type 5 subunit alpha (Homo sapiens, UniProt Q14524); assay: Inhibition of human Nav1.5 expressed in HEK cells by automated patchXpress electrophysiology method; assay type: ADME, cell-based
Sequence of Sodium channel protein type 5 subunit alpha (Q14524 whole entry): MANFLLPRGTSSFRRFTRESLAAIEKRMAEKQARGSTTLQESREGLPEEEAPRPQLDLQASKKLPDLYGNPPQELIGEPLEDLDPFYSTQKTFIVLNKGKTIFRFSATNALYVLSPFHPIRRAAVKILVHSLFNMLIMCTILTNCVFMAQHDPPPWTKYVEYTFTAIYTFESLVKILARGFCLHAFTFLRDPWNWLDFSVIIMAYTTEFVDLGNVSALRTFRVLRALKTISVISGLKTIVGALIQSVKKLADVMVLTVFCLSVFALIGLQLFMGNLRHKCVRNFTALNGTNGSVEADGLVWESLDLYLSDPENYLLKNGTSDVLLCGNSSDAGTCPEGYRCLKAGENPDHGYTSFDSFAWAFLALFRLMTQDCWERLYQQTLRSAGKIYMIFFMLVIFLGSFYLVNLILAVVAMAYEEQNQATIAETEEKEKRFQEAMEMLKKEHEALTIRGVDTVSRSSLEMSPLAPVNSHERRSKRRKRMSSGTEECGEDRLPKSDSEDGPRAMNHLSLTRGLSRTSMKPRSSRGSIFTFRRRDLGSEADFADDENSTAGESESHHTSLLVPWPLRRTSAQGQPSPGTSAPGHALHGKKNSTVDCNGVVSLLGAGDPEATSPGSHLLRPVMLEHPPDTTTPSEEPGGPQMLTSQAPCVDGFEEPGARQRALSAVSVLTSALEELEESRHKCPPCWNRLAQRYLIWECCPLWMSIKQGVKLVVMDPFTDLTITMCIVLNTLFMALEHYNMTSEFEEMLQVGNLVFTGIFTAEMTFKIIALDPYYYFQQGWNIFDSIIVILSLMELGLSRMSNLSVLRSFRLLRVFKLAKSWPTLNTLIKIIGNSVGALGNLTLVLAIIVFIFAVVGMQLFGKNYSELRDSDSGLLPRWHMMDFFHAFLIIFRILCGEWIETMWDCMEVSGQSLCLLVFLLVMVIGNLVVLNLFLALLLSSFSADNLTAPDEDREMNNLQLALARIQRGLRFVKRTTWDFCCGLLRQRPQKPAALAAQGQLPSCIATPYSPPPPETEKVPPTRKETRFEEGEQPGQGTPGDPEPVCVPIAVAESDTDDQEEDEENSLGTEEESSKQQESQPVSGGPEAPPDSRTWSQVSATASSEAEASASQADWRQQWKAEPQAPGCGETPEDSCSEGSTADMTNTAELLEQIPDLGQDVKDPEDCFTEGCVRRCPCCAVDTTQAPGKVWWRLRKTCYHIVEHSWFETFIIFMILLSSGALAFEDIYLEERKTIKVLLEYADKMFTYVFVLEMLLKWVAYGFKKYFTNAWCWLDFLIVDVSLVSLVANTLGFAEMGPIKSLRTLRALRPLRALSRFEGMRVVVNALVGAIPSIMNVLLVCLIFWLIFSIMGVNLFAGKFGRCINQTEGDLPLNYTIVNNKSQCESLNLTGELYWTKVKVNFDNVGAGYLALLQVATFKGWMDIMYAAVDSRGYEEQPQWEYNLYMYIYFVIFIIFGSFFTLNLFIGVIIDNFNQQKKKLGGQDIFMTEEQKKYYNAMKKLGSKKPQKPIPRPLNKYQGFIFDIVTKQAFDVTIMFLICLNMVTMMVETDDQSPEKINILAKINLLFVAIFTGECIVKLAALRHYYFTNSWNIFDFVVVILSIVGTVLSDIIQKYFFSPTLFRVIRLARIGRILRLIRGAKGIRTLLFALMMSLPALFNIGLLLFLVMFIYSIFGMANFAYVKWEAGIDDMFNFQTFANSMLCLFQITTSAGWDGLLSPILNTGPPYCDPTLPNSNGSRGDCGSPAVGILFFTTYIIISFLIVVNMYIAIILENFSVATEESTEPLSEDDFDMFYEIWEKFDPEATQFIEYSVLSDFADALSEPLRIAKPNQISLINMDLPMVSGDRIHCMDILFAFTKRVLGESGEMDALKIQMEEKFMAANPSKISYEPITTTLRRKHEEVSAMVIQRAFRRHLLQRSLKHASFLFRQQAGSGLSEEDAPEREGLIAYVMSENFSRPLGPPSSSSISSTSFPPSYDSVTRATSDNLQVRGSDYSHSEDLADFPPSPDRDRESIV

[4] = Solubility of the compound in aqueous buffer at pH 3; assay type: physicochemical
[5] = Solubility of the compound in aqueous buffer at pH 4.2; assay type: physicochemical
[6] = Solubility of the compound in aqueous buffer at pH 5.1; assay type: physicochemical
[7] = Solubility of the compound in aqueous buffer at pH 7.2; assay type: physicochemical

T1 sequence (Q15858 whole entry): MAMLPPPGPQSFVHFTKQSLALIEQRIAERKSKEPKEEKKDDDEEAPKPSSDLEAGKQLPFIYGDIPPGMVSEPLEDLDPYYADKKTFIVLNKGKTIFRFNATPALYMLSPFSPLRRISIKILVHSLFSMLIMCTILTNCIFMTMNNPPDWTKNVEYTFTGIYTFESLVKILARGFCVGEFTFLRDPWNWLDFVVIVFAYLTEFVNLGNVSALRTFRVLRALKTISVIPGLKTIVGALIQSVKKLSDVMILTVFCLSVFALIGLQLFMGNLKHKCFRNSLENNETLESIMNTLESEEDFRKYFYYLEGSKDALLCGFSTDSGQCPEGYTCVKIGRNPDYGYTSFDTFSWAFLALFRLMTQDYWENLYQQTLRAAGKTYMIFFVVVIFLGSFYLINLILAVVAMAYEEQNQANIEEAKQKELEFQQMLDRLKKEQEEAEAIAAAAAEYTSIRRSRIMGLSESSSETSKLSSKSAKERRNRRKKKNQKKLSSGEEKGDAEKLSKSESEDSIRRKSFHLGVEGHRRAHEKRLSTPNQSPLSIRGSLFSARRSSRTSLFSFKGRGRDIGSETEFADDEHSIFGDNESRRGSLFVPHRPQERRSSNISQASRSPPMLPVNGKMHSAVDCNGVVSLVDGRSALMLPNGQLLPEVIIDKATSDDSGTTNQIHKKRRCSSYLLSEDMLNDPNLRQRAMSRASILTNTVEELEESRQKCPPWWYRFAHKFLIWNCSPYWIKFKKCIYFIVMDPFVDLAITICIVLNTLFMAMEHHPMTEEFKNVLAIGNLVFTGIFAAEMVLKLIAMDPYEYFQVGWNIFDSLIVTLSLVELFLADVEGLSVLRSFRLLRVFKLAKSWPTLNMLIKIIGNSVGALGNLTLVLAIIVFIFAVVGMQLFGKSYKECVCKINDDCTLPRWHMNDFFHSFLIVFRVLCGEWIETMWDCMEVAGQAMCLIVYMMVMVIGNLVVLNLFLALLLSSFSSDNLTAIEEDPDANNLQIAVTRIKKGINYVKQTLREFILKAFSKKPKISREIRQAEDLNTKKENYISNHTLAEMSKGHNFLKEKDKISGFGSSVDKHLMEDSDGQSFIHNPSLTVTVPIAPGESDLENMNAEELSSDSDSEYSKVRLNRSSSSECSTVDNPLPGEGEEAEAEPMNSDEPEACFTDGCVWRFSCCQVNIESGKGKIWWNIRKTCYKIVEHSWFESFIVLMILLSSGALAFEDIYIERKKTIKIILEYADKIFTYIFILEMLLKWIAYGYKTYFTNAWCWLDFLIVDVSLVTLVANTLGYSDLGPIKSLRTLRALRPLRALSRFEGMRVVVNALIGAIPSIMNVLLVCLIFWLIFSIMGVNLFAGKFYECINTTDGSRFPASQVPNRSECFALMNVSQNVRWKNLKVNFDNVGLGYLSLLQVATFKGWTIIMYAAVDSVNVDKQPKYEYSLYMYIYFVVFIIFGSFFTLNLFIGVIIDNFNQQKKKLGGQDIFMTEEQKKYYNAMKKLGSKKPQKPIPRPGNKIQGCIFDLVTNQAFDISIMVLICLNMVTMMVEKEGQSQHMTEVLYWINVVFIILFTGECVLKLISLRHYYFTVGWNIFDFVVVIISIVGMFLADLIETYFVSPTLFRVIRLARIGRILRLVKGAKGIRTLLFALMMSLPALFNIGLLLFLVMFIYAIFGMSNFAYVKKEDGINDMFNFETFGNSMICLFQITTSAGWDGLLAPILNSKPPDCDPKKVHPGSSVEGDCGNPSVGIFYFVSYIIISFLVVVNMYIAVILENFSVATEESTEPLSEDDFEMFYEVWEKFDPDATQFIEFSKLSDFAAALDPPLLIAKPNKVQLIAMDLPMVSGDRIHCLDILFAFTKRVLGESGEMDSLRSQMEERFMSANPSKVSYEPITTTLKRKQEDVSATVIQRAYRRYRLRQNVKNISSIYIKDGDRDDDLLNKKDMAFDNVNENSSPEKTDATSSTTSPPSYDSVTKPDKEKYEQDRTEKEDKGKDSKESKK

SMILES | IC50 [1] [nM] | IC50 [2] [nM] | other results
C#CCCOc1ccc(C(=O)c2ccc(CCC(=O)N3CCC(CCNCc4cc(-c5cc(-c6cccc(C(F)(F)F)c6)ccc5Oc5ccc(S(=O)(=O)Nc6ncns6)cc5C#N)ccn4)CC3)cc2)cc1 | 0.1 | – | –
COCCOCCOCCOCCOCCOCCOCCOCCOCCOCCOCCOCCC(=O)N1CCC(CCNCc2cc(-c3cc(-c4cccc(C(F)(F)F)c4)ccc3Oc3ccc(S(=O)(=O)Nc4ncns4)cc3C#N)ccn2)CC1 | – | < 10 | IC50 [3]: > 3000 nM
NCc1cc(-c2cc(-c3cccc(C(F)(F)F)c3)ccc2Oc2cc(F)c(S(=O)(=O)Nc3nncs3)cc2Cl)ccn1 | – | – | solubility [4]: 6 µg/mL (≈ 9.43 µM); solubility [5]: < 0.5 µg/mL; solubility [6]: < 0.5 µg/mL; solubility [7]: < 0.5 µg/mL
N#Cc1cc(S(=O)(=O)Nc2ncns2)ccc1Oc1ccc(Cl)cc1-c1cccc(CNCCC2CCNCC2)c1 | – | 0.7 | –
N#Cc1cc(S(=O)(=O)Nc2ncns2)ccc1Oc1ccc(-c2cccc(C(F)(F)F)c2)cc1-c1ccnc(CN)c1 | 0.1 | – | –
O=S(=O)(Nc1cscn1)c1cc(Cl)c(Oc2ccc(Cl)cc2-c2ccnc(CN3CCC3)c2)cc1F | – | 13.2 | –
O=S(=O)(Nc1nncs1)c1cc(Cl)c(Oc2ccc(Cl)cc2-c2ccnc(CN3CCC3)c2)cc1F | – | 4.8 | –
Cc1cc(C)n2c1C=C1C=CC(CCCCC(=O)NCCOCCOCCC(=O)N3CCC(CCNCc4cc(-c5cc(-c6cccc(C(F)(F)F)c6)ccc5Oc5ccc(S(=O)(=O)Nc6ncns6)cc5C#N)ccn4)CC3)=[N+]1[B-]2(F)F | 0.12 | – | –
N#Cc1cc(S(=O)(=O)Nc2ncns2)ccc1Oc1ccc(Cl)cc1-c1cccc(CN)c1 | – | 8.5 | –
CC(=O)N1CCC(CCNCc2cc(-c3cc(-c4cccc(C(F)(F)F)c4)ccc3Oc3ccc(S(=O)(=O)Nc4ncns4)cc3C#N)ccn2)CC1 | – | < 4 | –
